Laboratory results reported in US20010044151A1, “Ligands for modulating the expression of exogenous genes via an ecdysone receptor complex” (priority 1998, published 2001).

Target: T1, VgEcR and RXR heterodimeric receptor (pVgRXR) with pIND/LacZ(SPI) in CHO cells (Drosophila melanogaster, UniProt P34021, E282G/G283S/G286V)
T1 construct: host or cells: CHO cells (ATCC CCL-61), transiently transfected or stably transformed with pVgRXR
T1 sequence (P34021 1-878 E282G/G283S/G286V): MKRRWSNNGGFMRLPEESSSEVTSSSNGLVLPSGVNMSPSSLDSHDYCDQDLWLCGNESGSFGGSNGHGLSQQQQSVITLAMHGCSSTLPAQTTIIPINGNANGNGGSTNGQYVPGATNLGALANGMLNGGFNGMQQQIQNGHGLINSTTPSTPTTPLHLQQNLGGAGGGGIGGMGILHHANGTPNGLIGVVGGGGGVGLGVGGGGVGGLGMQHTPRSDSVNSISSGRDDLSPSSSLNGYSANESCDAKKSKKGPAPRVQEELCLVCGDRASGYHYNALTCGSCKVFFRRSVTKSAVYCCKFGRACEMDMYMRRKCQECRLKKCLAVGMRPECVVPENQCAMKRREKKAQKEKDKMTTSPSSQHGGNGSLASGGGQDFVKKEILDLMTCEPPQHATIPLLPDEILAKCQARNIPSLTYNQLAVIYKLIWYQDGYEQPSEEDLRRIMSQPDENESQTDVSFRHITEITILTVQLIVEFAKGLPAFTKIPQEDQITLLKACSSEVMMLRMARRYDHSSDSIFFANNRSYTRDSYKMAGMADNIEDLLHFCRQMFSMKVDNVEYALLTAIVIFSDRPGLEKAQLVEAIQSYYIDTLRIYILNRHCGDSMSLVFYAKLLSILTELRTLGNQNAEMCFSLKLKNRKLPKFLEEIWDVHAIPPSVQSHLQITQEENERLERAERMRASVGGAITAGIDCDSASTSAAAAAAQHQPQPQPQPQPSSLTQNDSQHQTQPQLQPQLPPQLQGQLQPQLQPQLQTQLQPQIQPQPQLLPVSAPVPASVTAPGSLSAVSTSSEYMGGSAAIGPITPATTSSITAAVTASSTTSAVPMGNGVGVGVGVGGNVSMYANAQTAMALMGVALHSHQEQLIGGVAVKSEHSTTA
T1 sequence (P19793 1-462 partner): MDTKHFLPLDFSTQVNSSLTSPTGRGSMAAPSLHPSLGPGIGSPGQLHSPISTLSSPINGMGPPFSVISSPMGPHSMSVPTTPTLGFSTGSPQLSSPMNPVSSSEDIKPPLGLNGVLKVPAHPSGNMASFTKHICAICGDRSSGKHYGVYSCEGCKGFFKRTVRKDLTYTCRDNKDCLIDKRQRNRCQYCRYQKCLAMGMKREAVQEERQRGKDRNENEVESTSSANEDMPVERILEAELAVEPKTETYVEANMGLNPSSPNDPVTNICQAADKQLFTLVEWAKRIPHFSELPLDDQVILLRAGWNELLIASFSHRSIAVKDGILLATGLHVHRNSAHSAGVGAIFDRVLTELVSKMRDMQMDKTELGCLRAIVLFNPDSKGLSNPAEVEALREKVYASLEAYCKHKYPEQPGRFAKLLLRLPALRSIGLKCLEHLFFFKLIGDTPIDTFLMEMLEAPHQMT
Experiment: β-Galactosidase gene activation in stably transformed CHO cells
Format: cell-based
Conditions: ligand 10 μM; for β-Galactosidase activity: average of triplicate samples, no ligand = 200; for Induction Ratio (RLU in presence and absence of the ligand): β-galactosidase
From the text: pVgRXR (Invitrogen Corp., Carlsbad, Calif.) is an […] plasmid that expresses both VgEcR and RXR to form a modified heterodimeric nuclear receptor (see No, D., et. al., (1996) Proc. Natl. Acad. Sci. USA, 93, 3346-3351). The ecdysone receptor (VgEcR) is derived from the natural Drosophila ecdysone receptor and modified to contain the VP16 transactivation domain (see Cress, W. D., and Triezenberg, S. J. (1991), Science 251, 87-90; Sadowski, I., et. al (1988) Nature 335, 563-564; Triezenberg, S. J et. al., (1988), Genes Dev 2, 718-729; Triezenberg, S. J., et. al., (1988), Genes Dev 2, 730-742). RXR as the mammalian homologue of USP (ultraspiracle), the natural partner to the Drosophila ecdysone receptor (see Yao, T. -P., et. al., (1993), Nature 366, 476-479, Yao, T. -P., et. al., (1992), Cell 71, 63-72). The P-box region of the VgEcR DNA binding domain was modified to recognize the hybrid ecdysone response element that consists of one half-site from the gluccorticoid response element (see Umesono, K., and Evans, R. M. (1989), Cell 57, 1139-1146) and one half-site from the natural ecdysone response element. This hybrid response element reduces any possible interaction with the farsenoid X receptor that may bind the natural ecdysone responsive element (EcRE). The cytomegalovirus enhancer-promoter drives expression of VgEcR, and the Rous sarcoma virus promoter drives expression of RXR. The vector pIND (Invitrogen Corp) is a 5024 bp vector based on pcDNA3.1. It contains five hybrid E/GREs recognized by the modified ecdysone receptor expressed from pVgRXR and a minimal heat shock promoter (see Yao, T. P., et. al., (1993), Nature, 366, 476-479). pIND/lacZ (Invitrogen Crop.) is a 8170 bp plasmid that contains the β-galactosidase gene as a reporter enzyme. Cotransfection of pIND/lacZ and pVgRXR results in the induction of β-galactosidase expression upon addition of ecdysone agonists such as muristerone A. The reporter plasmid pIND/luc was constructed by subcloning the firefly luciferase gene from pGL3 (Promega/E1741) as a Nhe I-BamHI fragment into pIND, also digested with Nhe I and BamHI.
CHO cells stably transformed with pVgRXR and pIND/LacZ(SPI) (Invitrogen Crop.) were maintained in Hams F-12 media containing 10% FBS, 2 mM glutamine, 300 μg/ml Zeocin (Invitrogen Crop.) and 300 μg/ml Hygromycin B. pIND(SPI), an alternative to the pIND vector, can be induced to absolute expression levels five-fold greater than that of pIND due to the presence of 3 cis-acting SPI elements. Basal expression levels are correspondingly greater.
Stock solutions (10^−2 M) were prepared for muristerone A and the non-steroidal ligands of the present invention in ethanol and acetone respectively, and stored at −20° C. Twenty-four hours after transfection, a test compound was added at a final concentration of 10 μM (10^−5 M) to each 1 ml cell culture well. Muristerone A (Sigma, M7888) at 10 μM concentration was used as a positive control. Acetone alone was added as a negative control.
Reporter gene expression was evaluated 24-48 hours after treatment of transiently transfected cells or 24 hours after treatment of the stably transformed cell line with test ligands. β-galactosidase was assayed by either staining fixed cells or assaying for enzymatic activity in cellular lysates. β-galactosidase catalyzes the hydrolysis of the β-galactoside, X-gal (5-bromo-4-chloro-3-indolyl-β-galactopyranoside) producing a blue color within the fixed cells (Invitrogen, K1465-01) that can be visualized under a microscope. Alternatively, reporter lysis buffer (RLB; Promega/E397A) was used to lyse the cells for the detection of β-galactosidase activity using a chemiluminescent substrate, Galacto-Star (Tropix/BM100S). The cells within each 12-well plate were lysed with 250 μl of RLB. Twenty μl of each extract was assayed with 100 μl of substrate. […]

| Structure (SMILES) | β-Galactosidase activity [RLU] | Induction Ratio (RLU in presence and absence of the ligand) |
| --- | --- | --- |
| CCc1ccc(C(=O)NN(C(=O)c2cc(C)cc(C)c2)C(C)(C)C)cc1 [CE-1, N-(4-ethylbenzoyl)-N′-(3,5-dimethylbenzoyl)-N′-tert-butyl-hydrazine, reference compound] | 323 | 2 |
| CC(C)(C)N(NC(=O)c1ccccc1)C(=O)c1ccccc1 [CE-2, 1,2-dibenzoyl-1-tert-butyl-hydrazine, reference compound] | 145 | 1 |
| CC(C)CC[C@@H](O)[C@](C)(O)[C@H]1CC[C@@]2(O)C3=CC(=O)[C@]4(O)C[C@@H](O)[C@@H](O)C[C@]4(C)[C@H]3[C@H](O)C[C@]12C [CE-3, muristerone A, reference compound] | 9830 | 49 |
| CC(C)CC[C@@H](O)[C@](C)(O)[C@H]1CC[C@@]2(O)C3=CC(=O)[C@@H]4C[C@@H](O)[C@@H](O)C[C@]4(C)[C@H]3CC[C@]12C [CE-4, ponasterone A, reference compound] | 10386 | 52 |
| CCc1c(OC)cccc1C(=O)NN(C(=O)c1cccc(OC)c1)C(C)(C)C [Ligand 1] | 1123 | 6 |
| Cc1cc(C)cc(C(=O)N(NC(=O)c2ccc3c(c2C)OCCO3)C(C)(C)C)c1 [Ligand 2] | 536 | 3 |
| COc1cccc(C(=O)NN(C(=O)c2cc(C)cc(C)c2)C(C)(C)C)c1C [Ligand 3] | 681 | 3 |
| CCc1c(OC)cccc1C(=O)NN(C(=O)c1cc(F)cc(F)c1)C(C)(C)C [Ligand 4] | 1963 | 10 |
| CCc1c(OC)cccc1C(=O)NN(C(=O)c1cc(C)cc(C)c1)C(C)(C)C [Ligand 5] | 11599 | 58 |
| CCOc1cccc(C(=O)NN(C(=O)c2cc(C)cc(C)c2)C(C)(C)C)c1CC [Ligand 12] | 9830 | 49 |
| CCc1c(OC)cccc1C(=O)NN(C(=O)c1cc(Cl)cc(Cl)c1)C(C)(C)C [Ligand 13] | 6667 | 33 |
